Ki data for three compounds are collected here from ChEMBL document CHEMBL1777760, “Inhibition studies with anions and small molecules of two novel β-carbonic anhydrases from the bacterial pathogen Salmonella enterica serovar Typhimurium” (Bioorg Med Chem Lett, 2011).

For orientation: Ki means the dissociation constant of the complex between target and ligand, obtained from inhibition or displacement. Higher therefore signals weaker binding.

For this test, the target named is Carbonic anhydrase 1 (Homo sapiens, UniProt P00915).
Chain of Carbonic anhydrase 1 (P00915 whole entry): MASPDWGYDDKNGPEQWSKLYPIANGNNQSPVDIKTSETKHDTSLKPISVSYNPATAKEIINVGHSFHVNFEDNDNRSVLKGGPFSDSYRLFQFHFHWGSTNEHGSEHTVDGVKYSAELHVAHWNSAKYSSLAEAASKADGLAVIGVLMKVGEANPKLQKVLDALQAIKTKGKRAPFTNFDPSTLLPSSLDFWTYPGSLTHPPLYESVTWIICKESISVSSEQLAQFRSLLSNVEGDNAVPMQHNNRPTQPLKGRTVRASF
For `CCN(CC)C(=S)S` [DITIOCARB SODIUM], the affinity, expressed as Ki, was 790 µM. As for `NS(=O)(=O)O` [SODIUM SULFIMIDATE], the affinity, expressed as Ki, was 310 µM. `F[B-](F)(F)F.[Na+]` [SODIUM TETRAFLUOROBORATE] displayed a Ki of more than 200000 µM.
